Data as given in patent US5374623A, “Cysteine protease inhibitors effective for in vivo use” (Prototek, Inc., priority 1992, dated 1994).
pIC50: −log10 of the molar value.

Legend:
[1] = tested on: DBA/Lac mice injected with type II chick collagen; assay: Type II collagen arthritis in mice, oral 10 mg/kg/day (Example 13); format: in vivo; conditions: gavage 10 mg/kg/day, day 21 to day 49
Experimental: DBA/Lac mice were injected with 200 μg of type II chick collagen emulsified in Freund's complete adjuvant on day 0 and on day 21. Mu-Phe-HPhe-O-Ph was suspended in an ethanol solution which was then diluted to 10% (aq) and administered by gavage at a dose of 10 mg/kg/day from day 21 until sacrifice at day 49. The severity of joint inflammation was evaluated grossly at seven day intervals beginning on day 21. The effect of oral administration of Mu-Phe-HPhe-O-Ph on the severity of bone lesions in adjuvant-induced arthritis wa determined by evaluating osseous mineralization, periostat proliferation, bone erosion, joint space narrowing and osseous fragmentation. All lesions were scored on a scale of 0 (normal architecture) to 3 (severe or marked changes). Values calculated were means values ±1 std. error of the mean. […] The effect of oral administration of Mu-Phe-HPhe-O-Ph on the histological aspects of adjuvant-induced arthritis was determined by evaluating inflammation, focul ulcers, tibiotarsal joint cartilage destruction, bone destruction and periosteal proliferation. Inflammation was scored on a scale of 0 (no inflammation) to 3 (severe) based on the extent of edema and cell infiltration. Focul ulcer cartilage destruction was measured as the percent of articular cartilage surfaces with focal destruction which exposed underlying subchondral bone. […]

experimental gingivitis = assay: Experimental gingivitis in human subjects; format: in vivo; conditions: twenty human subjects, inhibitor placed at test sites and sealed with Coe-pak for a week, blind, placebo control
Source text: Treatment of Gingivitis with Mu-Phe-HPhe-O-Ph. The effect of the inhibitor on gingival inflammation was studied by investigating its ability to prevent the development of experimental gingivitis. Twenty human subjects with healthy gingiva and no periodontal disease were recruited. The subjects received oral hygiene instruction and scaling prior to baseline. The test sites were the mesibuccal crevices on the upper first and second molars and premolars (bicuspids). Acrylic shields were made to cover the gingival margins of these teeth and were worn during oral hygiene to prevent brushing of the test and control sites. During the test period of three weeks the subjects were told to brush only the lower teeth and upper anteriors and to ear the shields during brushing. The left side was used as the test side and the right was the control side in 10 subjects. The sides were reversed in the other 10 subjects so the subjects could act as their own controls. Thirty second GCF samples were taken prior to clinical measurements at baseline and at 1, 2, 3 and 4 weeks. These were assayed for cathepsins B and L-like activities. Clinical measurements of gingival index (GI), gingival bleeding index (GBI) and plaque index (PLI) were taken at test and control sites at zero, one, two, three and four weeks. […]

[2] = tested on: DBA/Lac mice injected with type II chick collagen; assay: Type II collagen arthritis in mice, oral 3-25 mg/kg/day (Example 14); format: in vivo; conditions: gavage 3 to 25 mg/kg/day in phosphate buffered saline, day 21 to day 35; scale 0-3
Experimental: DBA/Lac mice were injected with 200 μg of type II chick collagen emulsified in Complete Freund's Adjuvant on day 0 and on day 21. Mu-Phe-HPhe-O-Ph was suspended in phosphate buffered saline and administered by gavage from day 21 until sacrifice at day 35. Doses of between 3 mg/kg/day and 25 mg/kg/day were used, with the daily dosage being held constant over time for each test. The severity of joint inflammation was evaluated grossly at seven day intervals beginning on day 21. The effect of oral administration of Mu-Phe-HPhe-O-Ph on the severity of bone lesions in adjuvant-induced arthritis was determined by evaluating osseous mineralization, periostat proliferation, bone erosion, joint space narrowing and osseous fragmentation. All lesions were scored on a scale of 0 (normal architecture) to 3 (severe or marked changes). Values calculated were mean values ±1 std. error of the mean.

bone resorption = assay: In vivo bone resorption by urinary 14C-tetracycline excretion in rats
Experimental: Treatment of Osteo Arthritis with Mu-Phe-HPhe-O-Ph. The skeletons of young growing rats were radioactively labelled by injections with ^14 C-tetracycline over a 10 day period. The amount of bone resorption was then determined each day as the amount of radioactivity excreted in the urine. After 10 days of control excretion, test compounds were administered for three days subcutaneously and their effects on the daily excretion of tetracycline were determined. Tested compounds were dissolved in DMSO/PEG at a concentration of 25 mg/ml and were injected once per day subcutaneously in a volume of 2 ml/kg. Treatment of Osteo Arthritis with Mu-Leu-HPhe-O-Ph. The skeletons of young growing rats were radioactively labelled by injections with ^14 C-tetracycline over a 10 day period. The amount of bone resorption was then determined each day as the amount of radioactivity excreted in the urine. After 10 days of control excretion, test compounds were administered for three days subcutaneously and their effects on the daily excretion of tetracycline were determined. Tested compounds were dissolved in DMSO/PEG at a concentration of 25 mg/ml and were injected once per day subcutaneously in a volume of 2 ml/kg.

[3] = tested on: Soluble extracts of P. vinckei; assay: Proteolytic activity of P. vinckei soluble extracts, substrate Z-Phe-Arg-AFC; format: biochemical; conditions: read-out: IC50, proteolytic activity of P. vinckei extract
Experimental: (§1) Treatment of Malaria with Mu-Phe-HPhe-O-Ph. Soluble extracts of P. falciparum and P. vinckei were prepared and proteolytic activity was assayed with fluorogenic peptide substrate Z-Phe-Arg-AFC. The activity of control samples was compared with activities in the presence of multiple concentrations of Mu-Phe-HPhe-O-Ph. The concentrations at which activity was inhibited by 50% (IC50) was calculated.
as §1, with “with Mu-Leu-HPhe-O-Ph.” for “with Mu-Phe-HPhe-O-Ph.”, “of Mu-Leu-HPhe-O-Phe.” for “of Mu-Phe-HPhe-O-Ph.”, “The concentration” for “The concentrations”, “by 50%.” for “by 50%”
as §1, with “with Mu-Phe-Arg(NO2)-O-Ph.” for “with Mu-Phe-HPhe-O-Ph.”, “of Mu-Phe-Arg(NO2)-O-Ph.” for “of Mu-Phe-HPhe-O-Ph.”, “The concentration” for “The concentrations”
as §1, with “with Mu-Tyr(OCH3)2 -HPhe-O-Ph.” for “with Mu-Phe-HPhe-O-Ph.”, “samples as” for “samples was”, “of Mu-Tyr(OCH3)2 -HPhe-O-Ph.” for “of Mu-Phe-HPhe-O-Ph.”, “The concentration” for “The concentrations”

Compound: O=C(O)Cc1ccccc1OCC(=O)[C@H](CCc1ccccc1)NC(=O)[C@H](Cc1ccccc1)NC(=O)N1CCOCC1 [Mu-Phe-HPhe-O-Ph, (4-morpholinylcarbonyl)-L-phenylalanyl-L-homophenylalanyl-(2-carboxymethyl)phenoxymethyl ketone]
- histological aspects values vs control animals ([1]; inflammation, focul ulcers, tibiotarsal joint cartilage destruction, bone destruction, periosteal proliferation): significantly (p<0.05) lower than the values of control animals
- bone lesion severity values vs control animals ([1]; osseous mineralization, periostat proliferation, bone erosion, joint space narrowing, osseous fragmentation, scale 0-3): significantly (p<0.05) lower than the values of control animals
- GI, GBI, PLI and cysteine proteinase levels at test vs control sites (experimental gingivitis): reduced all parameters tested at the test sites
- bone lesion severity values vs control animals [2]: significantly (p<0.05) lower than the values of control animals
- inhibition of bone resorption in vivo as measured by tetracycline excretion (bone resorption; subcutaneous once per day for three days, 25 mg/ml in DMSO/PEG, 2 ml/kg): as great as that of a maximal dose of calcitonin
- time of maximum effect after dosing commenced (bone resorption; subcutaneous once per day, 25 mg/ml, 2 ml/kg): 24 h
- findings at the sites of injection at end of experiment (bone resorption; subcutaneous, DMSO/PEG, three days, histology: inflammation of subcutaneous fat, tissue necrosis): lesions were visible at the sits of injection
- pIC50 [3]: 8.29
